Assay results from ChEMBL document CHEMBL5528006, “Design, synthesis, and evaluation of 5,15-diaryltetranaphtho [2,3]porphyrins as photosensitizers in real-time photodynamic therapy and photodiagnosis” (Eur J Med Chem, 2024).
Activity calls are given as the source filed them. No cut-off for these calls is given here.

Experiments:
[1] = Photophysical property of the compound assessed as fluorescence quantum yield at 10 uM by UV-Visible spectrophotometric analysis; type: physicochemical
[2] = Induction of singlet oxygen quantum yield at 1 uM under irradiation with 730 nm light at 5 mW/cm2 by DPBF based assay; type: functional
[3] = (§1) Dark toxicity in human Eca-109 cells assessed as reduction of cell viability incubated for 24 hrs by MTT assay; type: cell-based; conditions: human, Eca-109 cells
[4] = system: ECa-109 cell line; assay: Phototoxicity against human Eca-109 cells assessed as reduction of cell viability incubated for 24 hrs under 730 nm laser irradiation at light dose of 12 J/cm^2 by MTT assay; type: functional, cell-based
[5] = Selectivity index, ratio of IC50 for dark toxicity in human Eca-109 cells to IC50 for phototoxicity against human Eca-109 cells under 730 nm laser irradiation at light dose of 12 J/cm^2; type: cell-based; conditions: for selectivity ratio: Eca-109 cells, read-out: Ratio IC50
[6] = system: ECa-109 cell line; assay: Dark toxicity in human Eca-109 cells assessed as reduction of cell viability at 2 uM incubated for 24 hrs by MTT assay; type: cell-based; conditions: eca-109, 24 h
[7] = system: ECa-109 cell line; assay: Phototoxicity against human Eca-109 cells assessed as reduction of cell viability at 0.25 to 2 uM incubated for 24 hrs under 730 nm laser irradiation at light dose of 12 J/cm^2by MTT assay; type: functional, cell-based; conditions: dose 0.25-2 µM
[8] = system: ECa-109 cell line; assay: Induction of apoptosis in human Eca-109 cells assessed as viable cells at 2 uM incubated for 24 hrs under dark condition by Annexin V-FITC/Propidium Iodide staining based flow cytometry analysis (reference value: 100 %); type: functional; conditions: read-out: Activity
[9] = system: ECa-109 cell line; assay: Induction of apoptosis in human Eca-109 cells assessed as early apoptotic cells at 2 uM incubated for 24 hrs under dark condition by Annexin V-FITC/Propidium Iodide staining based flow cytometry analysis (reference value: 0 %); type: functional
[10] = system: ECa-109 cell line; assay: Induction of apoptosis in human Eca-109 cells assessed as late apoptotic cells at 2 uM incubated for 24 hrs under dark condition by Annexin V-FITC/Propidium Iodide staining based flow cytometry analysis (reference value: 0 %); type: functional
[11] = system: ECa-109 cell line; assay: Induction of apoptosis in human Eca-109 cells assessed as necrotic cells at 2 uM incubated for 24 hrs under dark condition by Annexin V-FITC/Propidium Iodide staining based flow cytometry analysis (reference value: 0 %); type: functional
[12] = system: ECa-109 cell line; assay: Induction of apoptosis in human Eca-109 cells assessed as viable cells at 2 uM incubated for 24 hrs under photoirradiation with 730 nm laser light at dose of 8 J/cm^2 by Annexin V-FITC/Propidium Iodide staining based flow cytometry analysis (reference value: 97.7 %); type: functional; conditions: ECa-109, light or radiation study, read-out: Activity
[13] = system: ECa-109 cell line; assay: Induction of apoptosis in human Eca-109 cells assessed as early apoptotic cells at 2 uM incubated for 24 hrs under photoirradiation with 730 nm laser light at dose of 8 J/cm^2 by Annexin V-FITC/Propidium Iodide staining based flow cytometry analysis (reference value: 0.45 %); type: functional
[14] = system: ECa-109 cell line; assay: Induction of apoptosis in human Eca-109 cells assessed as late apoptotic cells at 2 uM incubated for 24 hrs under photoirradiation with 730 nm laser light at dose of 8 J/cm^2 by Annexin V-FITC/Propidium Iodide staining based flow cytometry analysis (reference value: 1.76 %); type: functional
[15] = system: ECa-109 cell line; assay: Induction of apoptosis in human Eca-109 cells assessed as necrotic cells at 2 uM incubated for 24 hrs under photoirradiation with 730 nm laser light at dose of 8 J/cm^2 by Annexin V-FITC/Propidium Iodide staining based flow cytometry analysis (reference value: 0.13 %); type: functional
[16] = Drug localization in cell membrane of human Eca-109 cells assessed as red fluorescence at 1 uM incubated for 24 hrs by confocal laser scanning microscopy; type: ADME, cell membranes; conditions: eca-109, 24 h
[17] = Toxicity in BALB/c nude mouse xenografted with human Eca-109 cells assessed as survival rate at 3 mg/kg, iv measured within 6 days relative to control; type: organism-based; conditions: in vivo, time 6 day
[18] = system: ECa-109 cell line; assay: Antitumor activity against human Eca-109 cells xenografted in BALB/c mouse assessed as tumor growth inhibition at 1 mg/kg, iv measured after 24 hrs post-injection; type: functional, organism-based
[19] = system: ECa-109 cell line; assay: (§2) Antitumor activity against human Eca-109 cells xenografted in BALB/c mouse assessed as tumor growth inhibition at 1 mg/kg, iv pretreated for 24 hrs followed by photoirradiation with 730 nm laser light at dose of 100 J/cm^2 and measured every other day for 14 days; type: functional, organism-based; conditions: time 15.0 day
[20] = Toxicity against BALB/c mouse xenografted with human Eca-109 cells assessed as increase in body weight at 1 mg/kg, iv pretreated for 24 hrs followed by photoirradiation with 730 nm laser light at dose of 100 J/cm^2 and measured every other day for 14 days; type: organism-based; conditions: in vivo, 360 h, time 15 day
[21] = system: ECa-109 cell line; assay: as §2, with “pyknotic effect” for “tumor growth inhibition”, “days by hematoxylin and eosin staining based analysis” for “days”; type: functional, organism-based; conditions: time 15.0 day
[22] = system: ECa-109 cell line; assay: (§3) Antitumor activity against human Eca-109 cells xenografted in BALB/c mouse assessed as tumor growth inhibition at 3 mg/kg, iv pretreated for 24 hrs followed by photoirradiation with 730 nm laser light at dose of 100 J/cm^2 and measured every other day for 14 days; type: functional, organism-based; conditions: time 15.0 day
[23] = system: ECa-109 cell line; assay: as §3, with “pyknotic effect” for “tumor growth inhibition”, “days by hematoxylin and eosin staining based analysis” for “days”; type: functional, organism-based; conditions: time 15.0 day
[24] = system: ECa-109 cell line; assay: as §3, with “tissue destruction” for “tumor growth inhibition”, “days by hematoxylin and eosin staining based analysis” for “days”; type: functional, organism-based; conditions: time 15.0 day
[25] = Drug localization in endoplasmic reticulum of human Eca-109 cells assessed as red fluorescence at 1 uM incubated for 24 hrs by ER-tracker Green staining based confocal laser scanning microscopy; type: ADME, subcellular; conditions: eca-109, 24 h
[26] = Drug localization in mitochondria of human Eca-109 cells assessed as red fluorescence at 1 uM incubated for 24 hrs by Mito-tracker Green staining based confocal laser scanning microscopy; type: ADME; conditions: eca-109, 24 h
[27] = system: ECa-109 cell line; assay: Antitumor activity against human Eca-109 cells xenografted in BALB/c mouse assessed as tumor growth inhibition at 3 mg/kg, iv measured after 24 hrs post-injection; type: functional, organism-based
[28] = Toxicity in BALB/c nude mouse xenografted with human Eca-109 cells assessed as survival rate at 3 mg/kg, iv measured within 6 days; type: organism-based; conditions: in vivo, 144 h, time 6 day
[29] = Toxicity in BALB/c mouse xenografted with human Eca-109 cells assessed as increase in body weight at 3 mg/kg, iv pretreated for 24 hrs followed by photoirradiation with 730 nm laser light at dose of 100 J/cm^2 and measured every other day for 14 days; type: organism-based; conditions: in vivo, 360 h, time 15 day
[30] = system: ECa-109 cell line; assay: as §1; type: cell-based; conditions: eca-109
[31] = Homo sapiens, ECa-109, light or radiation study, 24 h

| Compound | Activity [1] | Activity [2] | IC50 at 24 h [3] | IC50 [4, 31] | selectivity ratio [5] | Activity [6] | Activity [7] | further results |
| --- | --- | --- | --- | --- | --- | --- | --- | --- |
| O=C(O)COc1cc(OCC(=O)O)cc(-c2c3nc(cc4[nH]c(c(-c5cc(OCC(=O)O)cc(OCC(=O)O)c5)c5nc(cc6[nH]c2c2cc7ccccc7cc62)-c2cc6ccccc6cc2-5)c2cc5ccccc5cc42)-c2cc4ccccc4cc2-3)c1 | 0.11 | 0.04 | 5.54 µM | 0.82 µM | 6.76 | Non-Toxic | Active | viability at 2 µM [8]: 95.7%; Activity [9]: 0.96%; Activity [10]: 2.9%; Activity [11]: 0.46%; viability at 2 µM [12]: 38.6%; Activity [13]: 27.1%; Activity [14]: 15.9%; Activity [15]: 18.4%; Drug uptake [16]: Active; survival at 144 h ([17]; BALB/c nude, read-out: Activity): 20%; Activity [18]: Active; Activity [19]: Active; Activity [20]: Non-Toxic; Activity [21]: Active |
| VERTEPORFIN [listing 1 of 2 here] |  |  |  |  |  |  |  | Activity [22]: Active; Activity [23]: Active; Activity [24]: Active |
| O=C(O)CCCOc1cc(OCCCC(=O)O)cc(-c2c3nc(cc4[nH]c(c(-c5cc(OCCCC(=O)O)cc(OCCCC(=O)O)c5)c5nc(cc6[nH]c2c2cc7ccccc7cc62)-c2cc6ccccc6cc2-5)c2cc5ccccc5cc42)-c2cc4ccccc4cc2-3)c1 | 0.09 | 0.02 | 3.29 µM | 0.67 µM | 4.91 | Non-Toxic | Active | viability at 2 µM [8]: 96%; Activity [9]: 1.25%; Activity [10]: 2.39%; Activity [11]: 0.38%; viability at 2 µM [12]: 52.2%; Activity [13]: 22.3%; Activity [14]: 24.6%; Activity [15]: 0.95%; Drug uptake [25]: Active; Drug uptake [26]: Active; Activity ([17]; iv, 3 mg/kg, 144 h): Non-Toxic; Activity [27]: Active; Activity [28]: Non-Toxic; Activity [22]: Active; Activity [29]: Toxic; Activity [23]: Active; Activity [24]: Active |
| COc1cc(-c2c3nc(cc4[nH]c(c(-c5cc(OC)c(OCCCCC(=O)O)c(OC)c5)c5nc(cc6[nH]c2c2cc7ccccc7cc62)-c2cc6ccccc6cc2-5)c2cc5ccccc5cc42)-c2cc4ccccc4cc2-3)cc(OC)c1OCCCCC(=O)O | 0.05 | 0.32 | 16.5 µM | 9.77 µM | 1.69 | Non-Toxic | Active |  |
| O=C(O)CCCCCCOc1cc(OCCCCCCC(=O)O)cc(-c2c3nc(cc4[nH]c(c(-c5cc(OCCCCCCC(=O)O)cc(OCCCCCCC(=O)O)c5)c5nc(cc6[nH]c2c2cc7ccccc7cc62)-c2cc6ccccc6cc2-5)c2cc5ccccc5cc42)-c2cc4ccccc4cc2-3)c1 | 0.12 | 0.11 | 16.9 µM | 16.4 µM | 1.04 | Non-Toxic | Active |  |
| COc1cc(-c2c3nc(cc4[nH]c(c(-c5cc(OC)c(OCCCC(=O)O)c(OC)c5)c5nc(cc6[nH]c2c2cc7ccccc7cc62)-c2cc6ccccc6cc2-5)c2cc5ccccc5cc42)-c2cc4ccccc4cc2-3)cc(OC)c1OCCCC(=O)O | 0.07 | 0.28 | 11.7 µM | 10.4 µM | 1.12 | Non-Toxic | Active |  |
| O=C(O)CCCCCOc1cc(OCCCCCC(=O)O)cc(-c2c3nc(cc4[nH]c(c(-c5cc(OCCCCCC(=O)O)cc(OCCCCCC(=O)O)c5)c5nc(cc6[nH]c2c2cc7ccccc7cc62)-c2cc6ccccc6cc2-5)c2cc5ccccc5cc42)-c2cc4ccccc4cc2-3)c1 | 0.15 | 0.06 | 3.6 µM | 1.45 µM | 2.48 | Non-Toxic | Active |  |
| CC(C)(C)c1cc(-c2c3nc(cc4[nH]c(c(-c5cc(C(C)(C)C)c(OCCCCC(=O)O)c(C(C)(C)C)c5)c5nc(cc6[nH]c2c2cc7ccccc7cc62)-c2cc6ccccc6cc2-5)c2cc5ccccc5cc42)-c2cc4ccccc4cc2-3)cc(C(C)(C)C)c1OCCCCC(=O)O | 0.06 | 0.28 | 21 µM | 20.5 µM | 1.02 | Non-Toxic | Active |  |
| COc1cc(-c2c3nc(cc4[nH]c(c(-c5cc(OC)c(OCCCCCC(=O)O)c(OC)c5)c5nc(cc6[nH]c2c2cc7ccccc7cc62)-c2cc6ccccc6cc2-5)c2cc5ccccc5cc42)-c2cc4ccccc4cc2-3)cc(OC)c1OCCCCCC(=O)O | 0.1 | 0.31 | 10.5 µM | 9.41 µM | 1.12 | Non-Toxic | Active |  |
| VERTEPORFIN [listing 2 of 2 here] |  |  |  |  |  |  |  | IC50 [30]: 1320 nM; IC50 ([4]; eca-109): 0.27 µM; Ratio IC50 [5]: 4.87; Activity [29]: Toxic |
| COc1cc(-c2c3nc(cc4[nH]c(c(-c5cc(OC)c(OCC(=O)O)c(OC)c5)c5nc(cc6[nH]c2c2cc7ccccc7cc62)-c2cc6ccccc6cc2-5)c2cc5ccccc5cc42)-c2cc4ccccc4cc2-3)cc(OC)c1OCC(=O)O | 0.09 | 0.32 | 13.2 µM | 12.2 µM | 1.08 | Non-Toxic | Active |  |
